Earlier results as cited in patent publication US7767227B2, “Galenical form for oral administration with prolonged release of molsidomine” (Therabel Pharmaceuticals Limited, priority 2000, dated 2010).
Like-named read-outs stand apart in the source and are kept apart here.

CCOC(=O)[N-]c1cn(N2CCOCC2)n[o+]1 [Molsidomine, N-(ethoxycarbonyl)-3-(4-morpholinyl)sydnone imine]
period of action (4 mg dose): 4 to 5 h | period of action (8 mg dose): 10 to 12 h
